In data set [1] the test system is RAW macrophages infected with Leishmania infantum. The experiment in a line: Infectivity test / infection rate in RAW macrophages. The class given is cell-based. The settings on record: three concentrations (below IC50, IC50, above IC50), 24 h treatment. As for the experimental part: For the infection of RAW macrophages adhered to the plates, we used parasites in the promastigote form of Leishmania infantum, in the stationary phase, in a ratio of 10:1 (promastigotes/macrophages).
Macrophages were plated in the amount of 5 × 10^4 cells per well, in 96-well plates, which were kept in a CO2 oven at 37 °C for 24 h. The parasites were plated at a concentration of 10:1. The plates were kept in a CO2 oven for 12 h until the parasites infected the cells. […] Plates were fixed with paraformol for further evaluation. Plaques were evaluated by counting parasites within 200 cells under the EVOS Cell Imaging System (Thermo Scientific, Waltham, MA, USA) microscope by staining with propidium iodide.
In view of the data obtained, the six most promising compounds (HL1^Ch, HL2^Ph, Ag3, Ag4, Ag6 and Au2) were selected for carrying out the infection rate test against the L. infantum parasite. […] This test was performed at four stages. The first step determined the percentage of the amount in 200 infected macrophages per parasite, the second determined the percentage of parasites that infects 100 cells/macrophages, the third determined the average percentage of parasites that infects 200 cells/macrophages and, finally, the fourth step indicated the infection rate, that is, the result of the amount of Leishmania per macrophage (obtained from the third step) multiplied by the percentage of infected macrophages. Figure 5 presents the graphs of the infection rates, while the other graphs can be found in Figure S7.4.

Data set [2] addresses T1, LbOYE (Leishmania braziliensis, UniProt A4H6Z3). The experiment in a line: Suppression of intrinsic tryptophan fluorescence of LbOYE. The class given is binding. The following applies: 25 °C. An excerpt:
The recombinant LbOYE protein was produced using the methodology previously described. Briefly, the protein was expressed in strains of bacterial Escherichia coli BL21(DE3) through induction by IPTG using the pET28a:LbOYE vector. The enzyme was purified through a chromatography step of capture by nickel affinity, as the pET28a vector allows the expression of a polyhistidine fusion peptide, located at the N-terminal end of the protein. After affinity purification, the polyhistidine tail was excised by “overnight” incubation with thrombin, and the second purification step was performed using size exclusion chromatography. Purification was evaluated by SDS-PAGE and protein concentration was estimated by spectrophotometry.
The emission spectra of the intrinsic fluorescence of the tryptophan were recorded using a Shimadzu F-4500 spectrofluorometer in the range of 310–420 nm, with opening of slits of excitation and emission at 5.0 nm and λex = 295 nm. Interaction analyzes between LbOYE and ligands were performed at λmax = 333 nm.
The compounds were solubilized in DMSO and then we made successive dilutions in a Tris-HCl 25 mmol L^−1 buffer, pH 8.0, containing 100 mmol L^−1 of NaCl. For all experiments, the final concentration of DMSO was kept constant and equal to 2.5%. Solutions with increasing concentrations of ligand and constant concentration of LbOYE (1 µmol L^−1) were prepared, which were kept at 25 °C for a period of 1h before acquisition of fluorescence emission spectra.
The results were obtained from the fluorescence emission spectra of the intrinsic tryptophan probe in the presence of the compounds HL1^Ch, HL3^FPh, HL5^NO2Ph, [Au(HL1^Ch)2]Cl and [Ag(HL3^FPh)2]NO3. The bonding parameters were determined by the Hill plot, obtaining the dissociation constant (Kd) through the non-linear adjustment of the saturation curve to the experimental data. The double-log plot was used to determine the bonding constant and the number of bonding sites (n). It also allows the calculation of the bonding constant (Kb) and Kd from 1/Kb.
Equation (1)—Hill’s equation:(1) F0−F/F0=[L]/L+Kd
Equation (2)—Double-log:(2) logF0−F/F0=nlogKb−nlog1/L−(F0−F)[P0]/F
Equation (3)—Equation of Stern–Volmer:(3) F0/F=1+KSV[L]
The study of fluorescence quenching can be affected when the ligand has absorption bands that coincide with excitation and emission wavelengths of fluorescence. This interference is called the internal filter effect, which can be minimized using the procedure described by Equation (4). Fobs and Fcor are the fluorescence intensities at 333 nm measured and corrected, respectively; l represents the optical step where the absorption and emission of light occurs and C0 is the concentration of the ligand.
For the correction of the internal filter effect, were used the molar absorptivity coefficient values in the excitation (295 nm) and emission (333 nm) lengths, [λ/ε (L mol^−1 cm^−1)]; HL1^Ch (εex = 373 and εem = 117), HL3^FPh (εex = 1191 and εem = 57), HL5^NO2Ph (εex = 6162 and εem = 9124), Au1 (εex = 7045 and εem = 4008) and Ag3 (εex = 9431 and εem = 3281).

Data set [3] deals with T1, LbOYE. The experiment in a line: LbOYE enzyme kinetics (NADPH decay at 340 nm). The class given is biochemical. The following applies: 20 µmol L^−1 compound, 1 µmol L^−1 LbOYE, 100 µmol L^−1 NADPH; substrates NEM and O2. On the procedure:
The initial rates were obtained through the decay of the band at 340 nm referring to the maximum absorption of the NADPH (Nicotinamide Adenine Dinucleotide Phosphate) reducer, as previously reported. Solutions containing 1 µmol L^−1 of LbOYE, DMSO or 20 µmol L^−1 of the tested compounds from a stock solution at a concentration of 5 mmol L^−1 in DMSO were prepared in the presence and absence of the substrate N-Ethylmaleimide (NEM). These solutions were left for 30 min at room temperature. After 30 min, the NADPH reducer was added at a final concentration of 100 µmol L^−1.
Figure 7 Initial velocity (V0) for the reaction between 1 µmol L^−1 of LbOYE and 100 µmol L^−1 of NADPH in the presence of DMSO (control) or 20 µmol L^−1 of the compounds tested. Using (A) 100 µmol L^−1 of NEM in the presence of O2 and (B) absence of NEM in the presence of O2. Experiments carried out in phosphate buffer 25 mmol L^−1 pH 7.0, NaCl 100 mmol L^−1.

The nature of data set [4]: Solubility in buffer for the fluorescence experiments. In kind it is physicochemical. The following applies: Tris-HCl buffer. Summed up:
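Compounds dissolved in DMSO and diluted in 25 mmol L^−1 Tris-HCl, pH 8.0, 100 mmol L^−1 NaCl, final DMSO 2.5%. Increasing ligand with 1 µmol L^−1 LbOYE held 1 h at 25 °C before fluorescence emission spectra were recorded.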

What is called Kd is a measure of binding affinity in units of concentration.

Entries after “also recorded” stand apart in the source; their conditions may differ. Read-outs that look alike come from different tables or passages of the source.

T1 sequence (A4H6Z3 entry or part of it): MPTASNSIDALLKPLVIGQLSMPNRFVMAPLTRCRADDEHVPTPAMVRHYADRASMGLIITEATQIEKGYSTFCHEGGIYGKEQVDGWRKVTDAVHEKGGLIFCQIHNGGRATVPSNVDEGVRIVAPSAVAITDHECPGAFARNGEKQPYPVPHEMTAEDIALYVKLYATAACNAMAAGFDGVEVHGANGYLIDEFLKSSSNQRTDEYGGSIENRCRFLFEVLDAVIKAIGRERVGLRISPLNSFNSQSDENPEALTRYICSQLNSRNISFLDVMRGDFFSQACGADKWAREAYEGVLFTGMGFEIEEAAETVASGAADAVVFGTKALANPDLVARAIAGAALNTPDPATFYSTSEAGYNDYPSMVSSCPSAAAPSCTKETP

For the compound `Cc1ccc(S(=O)(=O)NNC(Nc2ccc(F)cc2)=[S][Ag+][S]=C(NNS(=O)(=O)c2ccc(C)cc2)Nc2ccc(F)cc2)cc1.O=[N+]([O-])[O-]` [Ag3, [Ag(HL3^FPh)2]NO3], the “Infection rate of L. infantum in macrophages, in words” value in data set [1] is “able to inhibit the parasite infection inside the cells even at lower concentrations than that determined by their IC50 values; also recorded: able to inhibit the parasite infection even at lower concentrations than that of their IC50 values”. The Kd is 9.6 ± 0.7 µM on LbOYE [2] (Hill plot (n = 1), Equation (1), Tris-HCl pH 8.0, 2.5% DMSO, read-out: Kd * (Hill plot)) and 11.2 ± 0.3 µM on LbOYE [2] (double log, Equation (2), Kd = 1/Kb, read-out: Kd ** (double log) (converted)). At LbOYE [2] (Stern–Volmer, Equation (3)), the “Ksv *** (Stern–Volmer constant)” value is listed as 23 ± 2 × 10^4. Also, the “n ** (number of bonding sites)” value at LbOYE [2] (double log, Equation (2)) came to 2.0 ± 0.1. Besides, the “Inhibition of LbOYE reaction (initial velocity V0), in words” value on LbOYE [3] is “capable of inhibiting the reaction of the enzyme both with the NEM and for O2”. For the same compound, the “Solubility in buffer at the concentrations for the fluorescence experiments, in words” value in data set [4] is “passed this stage”.

The values above are taken from PMC11053681, “Gold(I) and Silver(I) Complexes Containing Hybrid Sulfonamide/Thiourea Ligands as Potential Leishmanicidal Agents” (Pharmaceutics, 2024).
